The structures appear in SMILES notation.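 Briefly, cells in 96-well plates were exposed to five compound concentrations for 48 h, and endpoints were estimated by linear interpolation. TGI: concentration producing complete growth inhibition.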 Where only a bound is given, the exact number is not on record here.

Among the test systems are SF-268 CNS; EKVX NSCLC; HT29 colon; U251 CNS; CCRF-CEM leukemia; SK-OV-3 ovarian; SN12C renal; NCI-H23 lung; HOP-92 NSCLC; LOX IMVI melanoma.
Common to all, as to test: DTP human tumour cell line panel, 48 h

A word on the TGI: it is the concentration giving total growth inhibition. Higher therefore signals lower sensitivity of the cells. `COc1cc(/C=C(\C#N)c2ccccn2)cc(Br)c1O`: the total growth inhibition concentration (TGI) in the test on SF-268 CNS, in the test on EKVX NSCLC, in the test with HT29 colon, in the test on U251 CNS, in the test on CCRF-CEM leukemia and in the test with SK-OV-3 ovarian was > 100 µM throughout. The TGI with SN12C renal and in the test with NCI-H23 lung was > 100 µM each time.

Turning to `CCCCCCCCCCCCP(=O)(O)OCC(N)C(=O)O` (stereo unspecified), the concentration for total growth inhibition (TGI) in the test on SF-268 CNS was > 100 µM; in the test on EKVX NSCLC, > 100 µM; with HT29 colon, > 100 µM; with U251 CNS, 24.8 µM; in the test on SK-OV-3 ovarian it was 73.3 µM; in the test with SN12C renal, 42.4 µM. For the same compound, the TGI in the test on HOP-92 NSCLC is 71.6 µM; in the test on NCI-H23 lung, > 100 µM; in the test on LOX IMVI melanoma, > 100 µM.

For `N#CC(c1cc(Cl)ncn1)c1nc2ccccc2s1` (stereo unspecified), the TGI with SF-268 CNS was determined as 18.3 µM; in the test with EKVX NSCLC it was 58.1 µM; in the test on HT29 colon, 23.6 µM; in the test on U251 CNS it was 18.2 µM; in the test with SK-OV-3 ovarian it was 28.8 µM; in the test with SN12C renal, 7.49 µM. Moreover, the total growth inhibition concentration (TGI) in the test on HOP-92 NSCLC was determined as 11.1 µM; in the test on NCI-H23 lung, 19.5 µM; in the test on LOX IMVI melanoma, 15.8 µM.

Take `CC(=O)Nc1ccc(-c2nc3ccccc3s2)cc1O`: the TGI with SF-268 CNS, in the test with HT29 colon, in the test on U251 CNS, with CCRF-CEM leukemia, in the test with SN12C renal and in the test with HOP-92 NSCLC was > 100 µM throughout. Moreover, the total growth inhibition concentration (TGI) with NCI-H23 lung and in the test on LOX IMVI melanoma was > 100 µM throughout.

For the compound `COc1cccc(-n2c(N)c(-c3nc4cc(C(F)(F)F)ccc4s3)c3ccc([N+](=O)[O-])cc3c2=O)c1`, the total growth inhibition concentration (TGI) with SF-268 CNS, in the test on EKVX NSCLC, in the test on HT29 colon, with U251 CNS, in the test with SK-OV-3 ovarian and in the test on SN12C renal was > 100 µM throughout. Besides, the TGI with HOP-92 NSCLC and in the test with NCI-H23 lung was > 100 µM each time.

For the compound `Cc1nc2c(ncn2CCO)c(=O)[nH]1`, the concentration for total growth inhibition (TGI) with SF-268 CNS, in the test with EKVX NSCLC, in the test with HT29 colon, in the test on U251 CNS, in the test with CCRF-CEM leukemia and in the test with SK-OV-3 ovarian was > 100 µM throughout. In addition, the total growth inhibition concentration (TGI) in the test with SN12C renal, with NCI-H23 lung and in the test with LOX IMVI melanoma was > 100 µM each time.

In the case of `COC(=O)c1scc(N)c1-n1ccc(=O)[nH]c1=O`, the TGI in the test on SF-268 CNS, in the test with EKVX NSCLC, in the test on HT29 colon, in the test on U251 CNS, in the test on CCRF-CEM leukemia and in the test on SN12C renal was > 100 µM in each case. The concentration for total growth inhibition (TGI) in the test on HOP-92 NSCLC, in the test with NCI-H23 lung and in the test with LOX IMVI melanoma was > 100 µM each time.

As for `Cc1cc2[nH]c3c(C#N)c(-c4ccccc4)c(CN4CCOCC4)c(=O)n3c2cc1C`, the TGI with SF-268 CNS, in the test on EKVX NSCLC, with U251 CNS, in the test on CCRF-CEM leukemia, in the test on SK-OV-3 ovarian and in the test on SN12C renal was > 100 µM each time. Also, the TGI in the test with NCI-H23 lung and in the test on LOX IMVI melanoma was > 100 µM throughout.

For `CC1(C)C2CCC1(CC(=O)O)C(Cl)C2` (stereo unspecified), the TGI with SF-268 CNS, in the test with EKVX NSCLC, in the test on HT29 colon, in the test on U251 CNS, in the test on CCRF-CEM leukemia and with SK-OV-3 ovarian was > 100 µM in each case. Further, the TGI with SN12C renal, in the test on NCI-H23 lung and in the test on LOX IMVI melanoma was > 100 µM in each case.

Consider `C=C(C(=O)O)[C@@H]1C[C@@H]2O[C@H]1CC(C)=CCC/C(C)=C/CC[C@@]2(C)O`, for which the total growth inhibition concentration (TGI) in the test on SF-268 CNS, with EKVX NSCLC, in the test on U251 CNS, in the test on CCRF-CEM leukemia, with SN12C renal and in the test on HOP-92 NSCLC was > 100 µM throughout. Also, in the test with LOX IMVI melanoma, the TGI is > 100 µM.

Regarding `O=C(CSc1nnc(-c2ccc(N=Cc3ccc(Cl)cc3)cc2)o1)Nc1cccc(Cl)c1`, the TGI in the test on SF-268 CNS, in the test on EKVX NSCLC, in the test with HT29 colon, with U251 CNS, with CCRF-CEM leukemia and in the test on SK-OV-3 ovarian was > 100 µM each time. For the same compound, the total growth inhibition concentration (TGI) in the test with SN12C renal, in the test on NCI-H23 lung and in the test with LOX IMVI melanoma was > 100 µM throughout.

With `Cc1cc2c(c(N)c1C)C(=O)c1ccccc1C2=O`, the concentration for total growth inhibition (TGI) is > 100 µM in the test on SF-268 CNS; > 100 µM in the test on HT29 colon; 96.6 µM in the test with U251 CNS; > 100 µM in the test on CCRF-CEM leukemia; 49.2 µM with SK-OV-3 ovarian; > 100 µM with SN12C renal. Besides, the TGI in the test with HOP-92 NSCLC was 58.9 µM; in the test with LOX IMVI melanoma it was > 100 µM.

For the compound `O=c1[nH]c(=O)n(C2CC(O)C(CO)O2)cc1C#Cc1cc(F)cc(F)c1` (stereo unspecified), the concentration for total growth inhibition (TGI) with SF-268 CNS, in the test on EKVX NSCLC, with HT29 colon, with U251 CNS, with CCRF-CEM leukemia and in the test with SK-OV-3 ovarian was > 100 µM in each case. Further, the total growth inhibition concentration (TGI) with SN12C renal, in the test on NCI-H23 lung and in the test on LOX IMVI melanoma was > 100 µM in each case.

For `NC(CCCCNC(=O)C(Cc1ccccc1)NC(=O)OCc1ccccc1)C(=O)NC(CCCCNC(=O)C(Cc1ccccc1)NC(=O)OCc1ccccc1)C(=O)NC(CCCCNC(=O)C(Cc1ccccc1)NC(=O)OCc1ccccc1)C(=O)NC(CCCCNC(=O)C(Cc1ccccc1)NC(=O)OCc1ccccc1)C(=O)NC(CCCCNC(=O)C(Cc1ccccc1)NC(=O)OCc1ccccc1)C(=O)NC(CCCCNC(=O)C(Cc1ccccc1)NC(=O)OCc1ccccc1)C(=O)O` (stereo unspecified), the total growth inhibition concentration (TGI) in the test with SF-268 CNS, with HT29 colon, in the test on U251 CNS, in the test on CCRF-CEM leukemia, in the test with SN12C renal and in the test on NCI-H23 lung was > 100 µM in each case. Moreover, the TGI in the test on LOX IMVI melanoma was > 100 µM.

With `COc1ccc(C#CCC(OC2OC(CO)C(O)C(O)C2O)C(O)c2ccc(OC)c(OC)c2)cc1OC` (stereo unspecified), the total growth inhibition concentration (TGI) in the test with SF-268 CNS, with EKVX NSCLC, with HT29 colon, in the test with U251 CNS, in the test on CCRF-CEM leukemia and with SK-OV-3 ovarian was > 100 µM each time. For the same compound, the TGI is > 100 µM in the test on SN12C renal, > 100 µM in the test on NCI-H23 lung and 59.1 µM with LOX IMVI melanoma.

Source of the values: PubChem BioAssay (NCI).
